Data set [1] in a line: Microenvironmental pH of fosfomycin sodium, with and without organic acid. It is filed as physicochemical. An excerpt: Fosfomycin may be granulated by using methods such as slugging, low or high shear granulation or fluid bed granulation. For example, for high shear granulation (e.g., Diosna Mixer Granulator), fosfomycin can be blended with a water soluble filler (e.g., lactose, sucrose, mannitol and sorbitol) and granulated with binder (sugars like sucrose and liquid glucose; natural binders like starch and pre-gelatinized starch; synthetic/semisynthetic polymers like HPMC, povidone, PEG, polyvinyl alcohol) solution. The granules are dried, milled and blended with an organic acid (e.g., citric acid, tartaric acid, succinic acid, malic acid, fumaric acid), anti-adherent (e.g., talc, fumed silica) and lubricant (sodium stearyl fumarate). The organic acid serves as a neutralizer counteracting microenvironmental high alkalinity resulting from fosfomycin sodium. Fosfomycin sodium microenvironmental pH of about 9 would be reduced to pH 6-8 due to the presence of an organic acid. The final blend is compressed into tablets (1.4-1.7 g/tablet) followed by film coating (e.g., Opadry) in a conventional coating pan. These formulations can provide≧80% fosfomycin dissolution in less than 30 minutes at pH 1.2.

For data set [2] the following is noted: Borsa et al 1988; cited from earlier work.
The conditions of data set [3]: cited from earlier work.
The conditions of data set [4]: compared with the other fosfomycin salt (Bergan 1990); cited from earlier work.

These results are taken from US20150132382A1, “COMPOSITIONS AND METHODS OF TREATMENT COMPRISING FOSFOMYCIN DISODIUM” (Forest Laboratories Holdings Ltd., priority 2013, published 2015).

As to `C[C@@H]1O[C@@H]1P(=O)(O)O` [Fosfomycin disodium, fosfomycin disodium], the “microenvironmental pH” value in data set [1] is reported as “about 9”. Moreover, in data set [2], the gastric irritation result is “known to cause gastric irritation”.
With `C[C@@H]1O[C@@H]1P(=O)([O-])[O-].[Ca+2]` [fosfomycin calcium], the solubility in water result in data set [3] is on record as “slightly soluble in water”. The bioavailability entry in data set [4] was “lower bioavailability”.
